Data set [1] relates to influenza A virus strain WSN-HK.
Data set [2] deals with influenza B virus strain Massachusetts/6/93.
The subject of data set [3] is influenza B viruses/Massachusetts/6/92 (B/Mass).
The conditions of data set [4]: human, in vivo; cited from earlier work.

Turning to `N#CC(=C(N)Sc1ccccc1N)C(C#N)=C(N)Sc1ccccc1N` [U0126, 1,4-diamino-2,3-dicyano-1,4-bis(2-aminophenylthio)butadiene], the “reduction of the number of newly formed infectious virus particles” value is given as “approx. 80%” in data set [1] and “approx. 90%” in data set [2]. Besides, the “cytotoxic effect on the cells” value in the data set on MDCK cells is recorded as “neither solvent nor inhibitor have a significant cytotoxic effect”. For the same molecule, the “titer of infectious virus particles over infection sequences” value in data set [3] was “significant reduction of the influenza virus particles”.
As for `CN1CC[C@H](c2c(O)cc(O)c3c(=O)cc(-c4ccccc4Cl)oc23)[C@H](O)C1` [flavopiridol], in data set [4], the MTD is 50 mg/m^2/dx3.

The record behind these values is patent publication US20100239563A1 (priority 2001, published 2010).
